Among the data in patent publication US10011586B2, “Heterocyclic compound, method for preparing the same, and pharmaceutical composition comprising the same” (Daewoong Pharmaceutical Co., Ltd., priority 2015, dated 2018) are IC50 values, retold here.

In general, IC50 refers to the concentration that inhibits the measured activity by half.

One test addresses T1, PRS enzyme (Homo sapiens, UniProt P07814).
T1 construct: the portion corresponding to PRS in cDNA of EPRS was subcloned; made in house
T1 sequence (P07814 1007-1512 limits assumed): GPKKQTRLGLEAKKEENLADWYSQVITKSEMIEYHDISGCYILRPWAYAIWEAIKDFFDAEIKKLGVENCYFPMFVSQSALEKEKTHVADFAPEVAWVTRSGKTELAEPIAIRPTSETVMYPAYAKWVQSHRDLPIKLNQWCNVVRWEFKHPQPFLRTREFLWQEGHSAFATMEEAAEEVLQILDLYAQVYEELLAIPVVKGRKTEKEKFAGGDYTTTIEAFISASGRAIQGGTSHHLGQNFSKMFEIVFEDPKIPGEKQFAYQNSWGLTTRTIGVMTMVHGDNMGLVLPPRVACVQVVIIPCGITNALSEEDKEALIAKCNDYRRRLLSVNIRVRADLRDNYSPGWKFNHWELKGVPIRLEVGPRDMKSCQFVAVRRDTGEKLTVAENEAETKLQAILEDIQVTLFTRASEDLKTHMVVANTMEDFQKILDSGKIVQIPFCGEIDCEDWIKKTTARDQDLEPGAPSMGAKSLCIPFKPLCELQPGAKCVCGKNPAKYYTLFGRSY
As to the kind of experiment: PRS enzyme activity inhibition experiment. Format: biochemical. The protocol:
Specifically, the portion corresponding to PRS in cDNA of EPRS was subcloned, and the obtained high-purity PRS protein was purified and used in the experiment. The compounds (1 μM) prepared in Examples were added into the reaction buffer (20 mM KPO4 (pH 7.4), 6 mM MgAc, 5 mM ATP, […] tRNA, 0.5 mM DTT, […][^3H]proline (1 mCi/mL)) and allowed to react at 37° C. for 5 to 10 minutes. The reaction was terminated with 3M paper that was in advance dried by addition of 5% TCA. The radioactivity was measured using a liquid scintillation counter.
% Inhibition and IC50 values of the respective compounds were calculated and analyzed using Microsoft Excel or Sigma Plot 8.0. In Table 1, the results are divided into A, B and C according to the range of IC50.

A further test relates to NCI-H460 cells. The experiment in a line: Cancer cell growth inhibition experiment (MTT assay). Format: cell-based. To be noted: Homo sapiens, lung cancer cell line, compounds 48 hours, cell viability by MTT assay. The protocol:
NCl-H460 cells, lung cancer cell lines, were cultured in 5% CO2, 37° C. incubator using a flask for 75 cm^2 tissue culture. 96-well plates were used for the evaluation. These were prepared by differently applying at concentrations in the range of 6,000 to 12,000 cells/well according to the growth rate of the cell lines. The medium containing 5% FBS were dispensed in 200 μL/well and used. The medium were cultured for 24 hours. After confirming the cell status and dispensing form of a 96-well plate under a microscope, they were used for subsequent experiments. The compounds were evaluated at concentrations of 100, 30, 10, 3, 1, 0.3, 0.03, 0.01 μM. After removing the existing medium, the compounds with various concentrations were treated in an amount of 200 μL/well. The compounds-treated plates were further cultured for 48 hours, and the cell viabilities were measured by MTT assay to calculate IC50 values.
% Inhibition and IC50 values of the respective compounds were calculated and analyzed using Sigma Plot 8.0. In Table 2, the results are divided into A, B and C according to the range of IC50. The case where the derived IC50 is 3 μM or less is represented by “A”, the case where the IC50 is 3 to 10 μM is represented by “B”, and the case where the IC50 is 10 μM or higher is represented by “C”.
For orientation: Formazan colour is commonly taken as a measure of viable cells.

Setting [1] is: purified PRS protein subcloned from EPRS cDNA, [3H]proline, 37° C., 5 to 10 minutes, liquid scintillation counter, read-out: PRS IC50.

Where two headings read alike, the source gives them in different places.

`O=C(C[C@H]1NCCC[C@@H]1O)Cn1cnc2ccc(-c3cccc(C(F)(F)F)c3)nc21` [Example 47, 1-((2R,3S)-3-hydroxypiperidin-2-yl)-3-(5-(3-(trifluoromethyl)phenyl)-3H-imidazo[4,5-b]pyridin-3-yl)propan-2-one]: the results for the IC50 at PRS enzyme (setting [1]) and with NCI-H460 cells were under 0.1 µM and at most 3 µM, respectively.

Consider `O=C(C[C@H]1NCCC[C@@H]1O)Cn1cnc2cccc(-c3ccccc3)c21` [Example 48, 1-((2R,3S)-3-hydroxypiperidin-2-yl)-3-(7-phenyl-1H-benzo[d]imidazol-1-yl)propan-2-one], for which the values for the IC50 on PRS enzyme (setting [1]) and with NCI-H460 cells were 0.1 to 0.5 µM and at least 10 µM, respectively.

In the case of `O=C(C[C@H]1NCCC[C@@H]1O)Cn1cnc2cccc(-c3cccc(F)c3)c21` [Example 49, 1-(7-(3-fluorophenyl)-1H-benzo[d]imidazol-1-yl)-3-((2R,3S)-3-hydroxypiperidin-2-yl)propan-2-one], the IC50 on PRS enzyme (setting [1]) was under 0.1 µM; in the test on NCI-H460 cells it was at most 3 µM.

On to `O=C(C[C@H]1NCCC[C@@H]1O)Cn1cnc2cccc(-c3cccc(Cl)c3)c21` [Example 50, 1-(7-(3-chlorophenyl)-1H-benzo[d]imidazol-1-yl)-3-((2R,3S)-3-hydroxypiperidin-2-yl)propan-2-one], for which the IC50 was 0.1 to 0.5 µM at PRS enzyme (setting [1]) and at least 10 µM in the test with NCI-H460 cells.

Consider `O=C(C[C@H]1NCCC[C@@H]1O)Cn1cnc2cccc(-c3ccc(Cl)cc3)c21` [Example 51, 1-(7-(4-chlorophenyl)-1H-benzo[d]imidazol-1-yl)-3-((2R,3S)-3-hydroxypiperidin-2-yl)propan-2-one], for which the IC50 on PRS enzyme was 0.1 to 0.5 µM; in the test on NCI-H460 cells, at least 10 µM.

For `O=C(C[C@H]1NCCC[C@@H]1O)Cn1cnc2cccc(-c3ccc(C(F)(F)F)cc3)c21` [Example 54, 1-((2R,3S)-3-hydroxypiperidin-2-yl)-3-(7-(4-(trifluoromethyl)phenyl)-1H-benzo[d]imidazol-1-yl)propan-2-one], the IC50 on PRS enzyme (setting [1]) is 0.1 to 0.5 µM; with NCI-H460 cells, at least 10 µM.

On to `O=C(C[C@H]1NCCC[C@@H]1O)Cn1c(CO)nc2cc(-c3cccc(F)c3)ccc21` [Example 56, 1-(5-(3-fluorophenyl)-2-(hydroxymethyl)-1H-benzo[d]imidazol-1-yl)-3-((2R,3S)-3-hydroxypiperidin-2-yl)propan-2-one], for which the IC50 is over 0.5 µM on PRS enzyme (setting [1]) and at least 10 µM in the test on NCI-H460 cells.

Regarding `O=C(C[C@H]1NCCC[C@@H]1O)Cn1c(CO)nc2ccc(-c3ccccc3)cc21` [Example 57, 1-(2-(hydroxymethyl)-6-phenyl-1H-benzo[d]imidazol-1-yl)-3-((2R,3S)-3-hydroxypiperidin-2-yl)propan-2-one], the IC50 on PRS enzyme (setting [1]) is under 0.1 µM; with NCI-H460 cells, 3 to 10 µM.

Regarding `O=C(C[C@H]1NCCC[C@@H]1O)Cn1c(CO)nc2ccc(-c3ccccc3F)cc21` [Example 58, 1-(6-(2-fluorophenyl)-2-(hydroxymethyl)-1H-benzo[d]imidazol-1-yl)-3-((2R,3S)-3-hydroxypiperidin-2-yl)propan-2-one], the IC50 at PRS enzyme (setting [1]) is under 0.1 µM; in the test on NCI-H460 cells, 3 to 10 µM.

With `O=C(C[C@H]1NCCC[C@@H]1O)Cn1c(CO)nc2ccc(-c3cccc(F)c3)cc21` [Example 59, 1-(6-(3-fluorophenyl)-2-(hydroxymethyl)-1H-benzo[d]imidazol-1-yl)-3-((2R,3S)-3-hydroxypiperidin-2-yl)propan-2-one], the IC50 was under 0.1 µM on PRS enzyme (setting [1]) and at most 3 µM with NCI-H460 cells.

For the molecule `O=C(C[C@H]1NCCC[C@@H]1O)Cn1c(CO)nc2ccc(-c3ccc(F)cc3)cc21` [Example 60, 1-(6-(4-fluorophenyl)-2-(hydroxymethyl)-1H-benzo[d]imidazol-1-yl)-3-((2R,3S)-3-hydroxypiperidin-2-yl)propan-2-one], the values for the IC50 on PRS enzyme (setting [1]) and in the test on NCI-H460 cells were under 0.1 µM and at least 10 µM, respectively.

Take `O=C(C[C@H]1NCCC[C@@H]1O)Cn1c(CO)nc2ccc(-c3cccc(C(F)(F)F)c3)cc21` [Example 61, 1-(2-(hydroxymethyl)-6-(3-(trifluoromethyl)phenyl)-1H-benzo[d]imidazol-1-yl)-3-((2R,3S)-3-hydroxypiperidin-2-yl)propan-2-one]: the IC50 on PRS enzyme (setting [1]) is 0.1 to 0.5 µM; in the test with NCI-H460 cells, at most 3 µM.

Take `OC(C[C@H]1NCCC[C@@H]1O)Cn1cnc2ccc(-c3cccc(Cl)c3)nc21` (stereo partly drawn) [Example 62, (2R,3S)-2-(3-(5-(3-chlorophenyl)-3H-imidazo[4,5-b]pyridin-3-yl)-2-hydroxypropyl)piperidin-3-ol]: the half-inhibitory concentration (IC50) at PRS enzyme (setting [1]) is under 0.1 µM; in the test on NCI-H460 cells, at least 10 µM.

As for `OC(C[C@H]1NCCC[C@@H]1O)Cn1cnc2ccc(-c3cccc(Cl)c3)cc21` (stereo partly drawn) [Example 63, (2R,3S)-2-(3-(6-(3-chlorophenyl)-1H-benzo[d]imidazol-1-yl)-2-hydroxypropyl)piperidin-3-ol], the IC50 is 0.1 to 0.5 µM on PRS enzyme (setting [1]) and at least 10 µM in the test with NCI-H460 cells.
